Literature values as cited in patent US20240374497A1, “COMPOSITIONS COMPRISING OR2AT4 AGONISTS” (Coty Inc., priority 2021, published 2024).

Tests used:
human epidermis = conditions: ex vivo; selective activation of OR2AT4
[1] = test system: human epidermal keratinocyte; conditions: in vitro; selective activation of OR2AT4
[2] = target: T1, olfactory receptor OR2AT4 (Homo sapiens, UniProt A6NND4); conditions: receptor expressed in the epithelium of human hair follicles
T1 sequence (A6NND4 1-320): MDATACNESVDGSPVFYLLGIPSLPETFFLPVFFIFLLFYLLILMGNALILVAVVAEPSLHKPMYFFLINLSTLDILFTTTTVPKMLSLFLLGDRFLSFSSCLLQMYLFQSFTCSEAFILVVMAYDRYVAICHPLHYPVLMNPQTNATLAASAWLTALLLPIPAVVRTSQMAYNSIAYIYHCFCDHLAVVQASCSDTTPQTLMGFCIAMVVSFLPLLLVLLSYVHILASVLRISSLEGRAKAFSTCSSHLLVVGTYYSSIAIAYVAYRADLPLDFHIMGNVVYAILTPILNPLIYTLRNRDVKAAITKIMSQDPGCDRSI

| effect on the olfactory receptor OR2AT4 [2] | Compound | wound re-epithelialization (human epidermis) | human epidermal keratinocyte migration and proliferation [1] | hair growth ex vivo (human hair follicles) | apoptosis (human hair follicles; ex vivo) | production of growth factor IGF-1 (human hair follicles; ex vivo) |
| --- | --- | --- | --- | --- | --- | --- |
| – | CC1=CCC(CCC(C)C(C)O)C1(C)C (stereo not drawn) [Sandalore®] | promotes | promotes human epidermal keratinocyte migration and proliferation | – | – | – |
| stimulatory effect | CC1=CCC(CCC(C)C(C)O)C1(C)C (stereo not drawn) [sandal pentanol, 3-methyl-5-(2,2,3-trimethylcyclopent-3-en-1-yl)pentan-2-ol] | – | – | prolongs hair growth | decreasing apoptosis | increasing the production of growth factor IGF-1 |
